According to US20260070945A1, “MACROCYCLIC IMMUNOMODULATORS” (Bristol-Myers Squibb Company, priority 2022, published 2026):
*1 amine or outer side, *2 acyl side, *3 side chain or, on linkers, in order; H or OH if unused. Where a SMILES comes first, the peptide text is derived from it. Bridges are numbered along the chain shown (N, C = ends). [ ]: non-standard residue; d: D form. The star is where a group is joined. ξ: configuration not given here. Phe(4-(4-F-Ph)) = N[C@@H](Cc1ccc(-c2ccc(F)cc2)cc1)C(=O)O; Phe(3-CF3) = N[C@@H](Cc1cccc(C(F)(F)F)c1)C(=O)O; Phe(4-CF3) = N[C@@H](Cc1ccc(C(F)(F)F)cc1)C(=O)O; X8 = O=C(O)COc1ccc(C[C@H](N[*:1])C(=O)[*:2])cn1; Phe(4-COOH) = N[C@@H](Cc1ccc(C(=O)O)cc1)C(=O)O; Bip = N[C@@H](Cc1ccc(-c2ccccc2)cc1)C(=O)O; Phe(3-Cl) = N[C@@H](Cc1cccc(Cl)c1)C(=O)O; Phe(3-Me) = Cc1cccc(C[C@H](N)C(=O)O)c1; βAsp = O=C(O)[C@H](CC(=O)[*:2])N[*:1]; NH(CH2)12COOH = O=C(O)CCCCCCCCCCCCN*; NMeAEEA = CN(CCOCCOCC(=O)[*:2])[*:1]; Val(3-OH) = CC(C)(O)[C@H](N)C(=O)O; 4Pal = N[C@@H](Cc1ccncc1)C(=O)O; Cha = N[C@@H](CC1CCCCC1)C(=O)O; Cit = NC(=O)NCCC[C@H](N)C(=O)O; Thr(3ξ) = CC(O)[C@H](N)C(=O)O; CH2COCH2 = O=C(C[*:1])C[*:2]; 4Abz = Nc1ccc(C(=O)O)cc1; Carboxymethyl = O=C(O)C*; NMeA = CN[C@@H](C)C(=O)O; Orn = NCCC[C@H](N)C(=O)O; Aun = NCCCCCCCCCCC(=O)O; Dab = NCC[C@H](N)C(=O)O; AEEA = NCCOCCOCC(=O)O

molecular target: T1, PD-1/PD-L1 interaction (PE-labeled human PD-L1-Ig binding to Jurkat cell line over-expressing human PD-1) (Homo sapiens, UniProt Q15116); assay: Jurkat-PD-1 Cell Binding High-Content Screening Assay (CBA); settings: Jurkat-hPD-1 cells, PE-labeled PD-L1-Ig 20 nM final; read-out: Jurkat HPD1 PDL1 IC50
T1 construct: expressed in transfected cells; host or cells: Jurkat
T1 sequence (Q15116 25-288): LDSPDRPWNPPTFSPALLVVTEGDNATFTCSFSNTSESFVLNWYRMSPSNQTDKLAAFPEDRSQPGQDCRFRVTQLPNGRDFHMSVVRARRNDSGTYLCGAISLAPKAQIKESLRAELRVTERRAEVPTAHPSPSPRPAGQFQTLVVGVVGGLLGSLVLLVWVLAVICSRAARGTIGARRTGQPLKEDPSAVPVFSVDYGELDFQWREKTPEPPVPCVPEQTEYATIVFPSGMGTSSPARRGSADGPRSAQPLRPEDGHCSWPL
Method in brief: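 Compound is added first to the PD-1-expressing Jurkat cells and held 2 h at 37 °C in serum-containing DMEM. The fluorescent PD-L1 fusion follows at 20 nM final for 1 h. Fixed, Hoechst-stained cells are then imaged for bound label.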

How did the IC50 turn out when `Cc1cccc(C[C@@H]2NC(=O)[C@H](CC(=O)O)NC(=O)[C@H](Cc3ccc(OCC(=O)O)cc3)NC(=O)[C@H](C(C)O)NC(=O)CSC[C@@H](C(=O)N[C@H](CC(N)=O)C(=O)NCCCCCCCCCCC(=O)O)NC(=O)[C@H](C(C)O)NC(=O)[C@H](C(C)C)NC(=O)[C@H](CC3CCCCC3)NC(=O)[C@H](CCN)NC(=O)[C@@H](CC(C)C)NC(=O)[C@H](C)N(C)C(=O)[C@H](CCCNC(N)=O)NC(=O)[C@H](Cc3ccc(-c4ccccc4)cc3)NC(=O)[C@H](C(C)C)NC2=O)c1` (stereo partly drawn) [Example 2313] ({CH2CO}-[Thr(3ξ)]Y(Carboxymethyl)D[Phe(3-Me)]V[Bip][Cit][NMeA][dL][Dab][Cha]V[Thr(3ξ)]C[dN][Aun]-OH; thioether N-14) was run?
The IC50 was 10.1 nM.

With `CC(C)C[C@@H]1NC(=O)[C@H](Cc2c[nH]c3ccccc23)NC(=O)[C@H](CC(=O)O)NC(=O)[C@H](Cc2ccncc2)NC(=O)[C@H](Cc2ccc(OCC(=O)O)cc2)NC(=O)CSC[C@@H](C(=O)Nc2ccc(C(=O)NCCCCCCCCCCC(=O)O)cc2)NC(=O)[C@H](CCCNC(=N)N)NC(=O)[C@H](C(C)C)NC(=O)[C@H](CC2CCCCC2)NC(=O)[C@H](CCN)NC(=O)[C@@H](CC(C)C)NC(=O)[C@H](C)N(C)C(=O)[C@H](C(C)C)NC(=O)[C@H](Cc2ccc(-c3ccccc3)cc2)NC1=O` [Example 1214] ({CH2CO}-Y(Carboxymethyl)[4Pal]DWL[Bip]V[NMeA][dL][Dab][Cha]VRC[4Abz][Aun]-OH; thioether N-14) as the compound, how does the IC50 read?
The IC50 was 77.2 nM.

`Cc1cccc(C[C@@H]2NC(=O)[C@H](CC(=O)O)NC(=O)[C@H](Cc3ccc(C(=O)O)cc3)NC(=O)[C@H](Cc3ccc(OCC(=O)O)cc3)NC(=O)CSC[C@@H](C(=O)NCC(=O)N[C@@H](CC(=O)NCCOCCOCC(=O)N[C@@H](CC(=O)NCCCCCCCCCCC(=O)O)C(=O)O)C(=O)O)NC(=O)[C@H](CO)NC(=O)[C@H](C(C)C)NC(=O)[C@H](CC(C)C)NC(=O)[C@H](CC(N)=O)NC(=O)[C@@H](CC(C)C)NC(=O)[C@H](C)N(C)C(=O)[C@H](C(C)C)NC(=O)[C@H](Cc3ccc(-c4ccccc4)cc3)NC(=O)[C@H](CC(C)C)NC2=O)c1` [Example 1025] ({CH2CO}-Y(Carboxymethyl)[Phe(4-COOH)]D[Phe(3-Me)]L[Bip]V[NMeA][dL]NLVSCG[βAsp][AEEA][βAsp][Aun]-OH; thioether N-14) was tested. Which IC50 did it give?
Its IC50 is 112 nM.

For `CC(C)C[C@@H]1NC(=O)[C@H](Cc2c[nH]c3ccccc23)NC(=O)[C@H](CC(=O)O)NC(=O)[C@H](Cc2ccncc2)NC(=O)[C@H](Cc2ccc(OCC(=O)O)nc2)NC(=O)CSC[C@@H](C(=O)N[C@@H](CCN)C(=O)NCCCCCCCCCCC(=O)O)NC(=O)[C@H](CCC(N)=O)NC(=O)[C@H](C(C)C)NC(=O)[C@H](CC2CCCCC2)NC(=O)[C@H](CCN)NC(=O)[C@@H](CC(C)C)NC(=O)[C@H](C)N(C)C(=O)[C@H](C(C)C)NC(=O)[C@H](Cc2ccc(-c3ccccc3)cc2)NC1=O` [Example 1343] ({CH2CO}-[X8][4Pal]DWL[Bip]V[NMeA][dL][Dab][Cha]VQC[Dab][Aun]-OH; thioether N-14), which IC50 is on record?
The IC50 was 39.2 nM.

`CC(C)C[C@H]1NC(=O)[C@H](C)N(C)C(=O)[C@H](Cc2ccc(OCC(=O)O)cc2)NC(=O)[C@H](Cc2ccc(-c3ccccc3)cc2)NC(=O)[C@H](Cc2ccc(OCC(=O)O)cc2)NC(=O)[C@H](Cc2c[nH]c3ccccc23)NC(=O)[C@H](CC(=O)O)NC(=O)[C@H](Cc2ccncc2)NC(=O)[C@H](Cc2ccc(OCC(=O)O)cc2)NC(=O)CSC[C@@H](C(=O)N[C@@H](CCN)C(=O)NCCOCCOCC(=O)NCCCCCCCCCCC(=O)O)NC(=O)[C@H](CCCN)NC(=O)[C@H](C(C)C)NC(=O)[C@H](CC2CCCCC2)NC(=O)[C@H](CC(N)=O)NC1=O` [Example 1380] ({CH2CO}-Y(Carboxymethyl)[4Pal]DWY(Carboxymethyl)[Bip]Y(Carboxymethyl)[NMeA][dL]N[Cha]V[Orn]C[Dab][AEEA][Aun]-OH; thioether N-14) was tested. Which IC50 did it give?
The IC50 was 119 nM.

For `Cc1cccc(C[C@@H]2NC(=O)[C@H](CC(=O)O)NC(=O)[C@H](Cc3ccc(OCC(=O)O)cc3)NC(=O)[C@H]([C@@H](C)O)NC(=O)CSC[C@@H](C(=O)N[C@@H](CCN)C(=O)NCCCCCCCCCCC(=O)O)NC(=O)[C@H]([C@@H](C)O)NC(=O)[C@H](C(C)C)NC(=O)[C@H](CC3CCCCC3)NC(=O)[C@H](CCN)NC(=O)[C@@H](CC(C)C)NC(=O)[C@H](C)N(C)C(=O)[C@H](Cc3ccc(OCC(=O)O)cc3)NC(=O)[C@H](Cc3ccc(-c4ccc(F)cc4)cc3)NC(=O)[C@H](Cc3ccc(C(=O)O)cc3)NC2=O)c1` [Example 1235] ({CH2CO}-TY(Carboxymethyl)D[Phe(3-Me)][Phe(4-COOH)][Phe(4-(4-F-Ph))]Y(Carboxymethyl)[NMeA][dL][Dab][Cha]VTC[Dab][Aun]-OH; thioether N-14), which IC50 is on record?
The IC50 was 9.5 nM.

Which IC50 does the source give for `CC(=O)COc1ccc(C[C@@H]2NC(=O)[C@H](CCCNC(=N)N)NC(=O)CSC[C@@H](C(=O)N[C@@H](CCN)C(=O)NCCCCCCCCCCC(=O)O)NC(=O)[C@H](C(C)O)NC(=O)[C@H](C(C)C)NC(=O)[C@H](CC3CCCCC3)NC(=O)[C@H](CCN)NC(=O)[C@@H](CC(C)C)NC(=O)[C@H](C)N(C)C(=O)[C@H](Cc3ccc(OCC(=O)O)cc3)NC(=O)[C@H](Cc3ccc(-c4ccccc4)cc3)NC(=O)[C@H](CC(C)C)NC(=O)[C@H](Cc3cccc(C)c3)NC(=O)[C@H](CC(=O)O)NC2=O)cc1` (stereo partly drawn) [Example 2253] ({CH2CO}-RY(CH2COCH2)D[Phe(3-Me)]L[Bip]Y(Carboxymethyl)[NMeA][dL][Dab][Cha]V[Thr(3ξ)]C[Dab][Aun]-OH; thioether N-14) here?
The IC50 was 11.9 nM.

For `Cc1cccc(C[C@@H]2NC(=O)[C@H](CC(=O)O)NC(=O)[C@H](Cc3ccc(C(=O)O)cc3)NC(=O)[C@H](CCN)NC(=O)CSC[C@@H](C(=O)N[C@@H](CCN)C(=O)NCCCCCCCCCCC(=O)O)NC(=O)[C@H](CO)NC(=O)[C@H](C(C)(C)O)NC(=O)[C@H](CC3CCCCC3)NC(=O)[C@H](CCN)NC(=O)[C@@H](CC(C)C)NC(=O)[C@H](C)N(C)C(=O)[C@H](Cc3ccc(OCC(=O)O)cc3)NC(=O)[C@H](Cc3ccc(-c4ccccc4)cc3)NC(=O)[C@H](Cc3cccc(Cl)c3)NC2=O)c1` [Example 1297] ({CH2CO}-[Dab][Phe(4-COOH)]D[Phe(3-Me)][Phe(3-Cl)][Bip]Y(Carboxymethyl)[NMeA][dL][Dab][Cha][Val(3-OH)]SC[Dab][Aun]-OH; thioether N-14), which IC50 is on record?
The IC50 was 33.3 nM.

`Cc1cccc(C[C@@H]2NC(=O)[C@H](CC(=O)O)NC(=O)[C@H](Cc3ccc(C(=O)O)cc3)NC(=O)[C@H](Cc3ccc(OCC(=O)O)cc3)NC(=O)CSC[C@@H](C(=O)NCCOCCOCC(=O)NCCCCCCCCCCC(=O)O)NC(=O)[C@H](CCCCN)NC(=O)[C@H](C(C)C)NC(=O)[C@H](CC3CCCCC3)NC(=O)[C@H](CCN)NC(=O)[C@@H](CC(C)C)NC(=O)[C@H](C)N(C)C(=O)[C@H](C(C)C)NC(=O)[C@H](Cc3ccc(-c4ccccc4)cc3)NC(=O)[C@H](CC(C)C)NC2=O)c1` [Example 2231] ({CH2CO}-Y(Carboxymethyl)[Phe(4-COOH)]D[Phe(3-Me)]L[Bip]V[NMeA][dL][Dab][Cha]VKC[AEEA][Aun]-OH; thioether N-14) was tested. Which IC50 did it give?
The IC50 was 3.3 nM.

With `Cc1cccc(C[C@@H]2NC(=O)[C@H](CC(=O)O)NC(=O)[C@H](Cc3ccc(OCC(=O)O)cc3)NC(=O)[C@H](C(C)O)NC(=O)CSC[C@@H](C(=O)N(C)CCOCCOCC(=O)NCCCCCCCCCCC(=O)O)NC(=O)[C@H](CCCNC(N)=O)NC(=O)[C@H](C(C)C)NC(=O)[C@H](CC3CCCCC3)NC(=O)[C@H](CCN)NC(=O)[C@@H](CC(C)C)NC(=O)[C@H](C)N(C)C(=O)[C@H](C(C)C)NC(=O)[C@H](Cc3ccc(-c4ccccc4)cc3)NC(=O)[C@H](C(C)C)NC2=O)c1` (stereo partly drawn) [Example 2359] ({CH2CO}-[Thr(3ξ)]Y(Carboxymethyl)D[Phe(3-Me)]V[Bip]V[NMeA][dL][Dab][Cha]V[Cit]C[NMeAEEA][Aun]-OH; thioether N-14) as the compound, how does the IC50 read?
The IC50 was 26.3 nM.

same assay, conditions: PE-labeled PD-L1-Ig 20 nM final, Jurkat-hPD-1 cells; read-out: Jurkat HPD1 PDL1 IC50

With `CC(=O)NCCCC[C@@H]1NC(=O)[C@H](C(C)(C)O)NC(=O)[C@H](CC2CCCCC2)NC(=O)[C@H](CCN)NC(=O)[C@@H](CC(C)C)NC(=O)[C@H](C)N(C)C(=O)[C@H](CCC(N)=O)NC(=O)[C@H](Cc2ccc(-c3ccccc3)cc2)NC(=O)[C@H](Cc2ccc(OCC(=O)O)cc2)NC(=O)[C@H](Cc2cccc(C(F)(F)F)c2)NC(=O)[C@H](CC(=O)O)NC(=O)[C@H](Cc2ccc(OCC(=O)O)cc2)NC(=O)[C@H](Cc2ccc(C(F)(F)F)cc2)NC(=O)CSC[C@@H](C(=O)N[C@@H](CCN)C(=O)NCCCCCCCCCCCCC(=O)O)NC1=O` [Example 2622] ({CH2CO}-[Phe(4-CF3)]Y(Carboxymethyl)D[Phe(3-CF3)]Y(Carboxymethyl)[Bip]Q[NMeA][dL][Dab][Cha][Val(3-OH)]K(Ac)C[Dab]-{NH(CH2)12COOH}; thioether N-14) as the compound, how does the IC50 read?
The IC50 was 83.9 nM.

`CC(C)C[C@@H]1NC(=O)[C@H](Cc2c[nH]c3ccccc23)NC(=O)[C@H](CC(=O)O)NC(=O)[C@H](Cc2ccc(OCC(=O)O)cc2)NC(=O)[C@H](Cc2ccc(OCC(=O)O)cc2)NC(=O)CSC[C@@H](C(=O)N[C@@H](CCN)C(=O)NCCOCCOCC(=O)NCCCCCCCCCCC(=O)O)NC(=O)[C@H](CCC(=O)O)NC(=O)[C@H](C(C)(C)O)NC(=O)[C@H](CC2CCCCC2)NC(=O)[C@H](CCN)NC(=O)[C@@H](CC(C)C)NC(=O)[C@H](C)N(C)C(=O)[C@H](CCC(N)=O)NC(=O)[C@H](Cc2ccc(-c3ccccc3)cc2)NC1=O` [Example 2516] ({CH2CO}-Y(Carboxymethyl)Y(Carboxymethyl)DWL[Bip]Q[NMeA][dL][Dab][Cha][Val(3-OH)]EC[Dab][AEEA][Aun]-OH; thioether N-14) was tested. Which IC50 did it give?
Its IC50 is 20.7 nM.
